Results taken from patent US20040018984A1, “Methods for preventing adhesion formation using protease inhibitors” (priority 2002, published 2004).
One block for each compound: values may come before it.

Columns and labels:
Syrian hamsters = experiment: Scoring of adhesion formation after uterine denudation surgery in hamsters; format: in vivo, hamster; conditions: for preventative effect, reducing adhesion formation: subsequent experiments in the hamster model with enantiomerically enriched preparations
Procedure: (§1) Mature female Syrian hamsters (SLC, Shizuoka, Japan), 6 weeks of age, weighing 85 to 90 g were maintained in an environmentally controlled room with a 12-hour light, 12-hour dark cycle. Hamsters were anesthetized with intraperitoneal sodium pentobarbital (50 mg/kg). Surgical technique was performed using a modified procedure of Nagler et al. (Am. J. Obstet. Gynecol. 180:558-63, 1999). An abdominal midline incision was made, and the right uterus was grasped and denuded of serosa over half the length of the uterine body until punctate hemorrhage occurred, using a swab. In the […], 1 ml of 10 μM Suc-Val-Pro-Phe^P(OPh)2 in saline was injected into the abdomen. Then, the abdomen was closed in two layers with silk sutures. In the placebo group, the same 1 ml amount of saline was administered as in the chymase inhibitor group.
(§2) Three days after the surgery, the animals (placebo group, n=13; chymase group, n=13) were anesthetized with sodium pentobarbital (50 mgikg, i.p.), and then the uterus was removed for the measurement of chymase activity. Two weeks after the surgery, the animals (placebo group, n=15; chymase group, n=16) were anesthetized with sodium pentobarbital (50 mg/kg, i.p.), and then adhesions were assessed.
The adhesions were graded blindly according to a modified classification of Hulka et al. (Fertil Steril. 30:661-665, 1978): Score 0, no adhesions; Score 1, mild adhesions; Score 2, localized moderate adhesions; Score 3, moderate and wide adhesions; Score 4, severe adhesions, and impossible to separate. Chymase activities were evaluated in a parametric test using Fisher's Protected Least Significant Difference. Adhesion scores were evaluated in a nonparametric test, and statistically analyzed by the Mann-Whitney's U test. Values are given as means ±standard error (S.E.). Differences were considered statistically significant at P<0.05.

chymase [1] = experiment: Uterus chymase activity after uterine denudation surgery in hamsters; format: in vivo, hamster; conditions: three days after the operation; 1 ml of 10 μM in saline injected into the abdomen; mean ± S.E.; P=0.06 vs placebo (0.88±0.09)
Procedure: as §1, with “In the placebo group, the same 1 ml amount of saline was administered as in the chymase inhibitor group.” left out
as §2, with “assessed. […]” for “assessed.”
Chymase activity was measured as described previously (Jin et al., J. Hypertens. 16:657-664, 1998). […] Protein concentration was measured with the bicinchoninic acid protein assay reagent (Pierce Chemical, Rockford, Ill.) using bovine serum albumin as a standard. […]

[2] = system: chymotrypsin and chymotrypsin-like enzymes; conditions: cited from earlier work
[3] = cited from earlier work
chymase [4] = molecular target: T1, chymase (Homo sapiens, UniProt P23946); experiment: Chymase activity in vascular tissues after administration during the operation; format: in vivo; conditions: for 4 weeks, 10 μM administration only during the operation
T1 construct: from tissue
T1 sequence (P23946 22-247): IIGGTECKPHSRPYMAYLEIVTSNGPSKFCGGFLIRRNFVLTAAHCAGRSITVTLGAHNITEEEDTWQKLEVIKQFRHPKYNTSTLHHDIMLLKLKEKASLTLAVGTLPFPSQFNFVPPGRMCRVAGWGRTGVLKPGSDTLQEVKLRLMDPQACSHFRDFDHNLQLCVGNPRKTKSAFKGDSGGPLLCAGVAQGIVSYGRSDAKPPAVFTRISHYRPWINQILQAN
Source text: Pursuant to the method of the present invention, at least one protease inhibitor is maintained in an effective concentration at the site of potential adhesion formation for a period of time sufficient to permit substantial re-epithelialization. The protease inhibitor compound is typically administered over the perioperative interval, which for purposes of the present invention may include a period of time prior to surgery, through surgery itself, and also post-completion of surgery. The term of administration of administration may vary, but typically should be effected from the time of surgery for at least 24 to 48 hours after completion of surgical procedures. In general, the protease inhibitory compound may be administered, with or without sustained release vehicles or formulations, from the time of surgery for a period ranging between about 24 hours and about 14 days (a period that generally will include complete healing). Preferably the compound may be administered as above from the time of surgery for a period ranging between about 24 hours and 7 days, and more preferably ranging between about 24 hours and 3 days. […] Effective dosages, regimens, and routes of administration for other protease inhibitors may be readily determined by one of skill in the art using the teachings provided herein.

bovine thrombin = bovine thrombin (Bos taurus, UniProt P00735); conditions: cited from earlier work
human leukocyte elastase = human leukocyte elastase (Homo sapiens, UniProt P08246); conditions: cited from earlier work
human leukocyte elastase, sequence (P08246 30-267): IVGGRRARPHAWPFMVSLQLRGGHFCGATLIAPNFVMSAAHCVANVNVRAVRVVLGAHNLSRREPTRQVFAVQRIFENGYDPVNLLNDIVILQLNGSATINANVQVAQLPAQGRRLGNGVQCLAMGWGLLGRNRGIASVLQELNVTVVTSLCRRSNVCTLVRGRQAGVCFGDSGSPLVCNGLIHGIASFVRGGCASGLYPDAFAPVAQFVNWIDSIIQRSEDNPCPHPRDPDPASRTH

Compound: CC(C)[C@H](NC(=O)CCC(=O)O)C(=O)N1CCC[C@H]1C(=O)NC(Cc1ccccc1)P(=O)(Oc1ccccc1)Oc1ccccc1 (stereo partly drawn) [Suc-Val-Pro-Phe^P(OPh)2-A]
preventative effect, reducing adhesion formation (Syrian hamsters): significant preventative effect

Compound: CC(C)[C@H](NC(=O)CCC(=O)O)C(=O)N1CCC[C@H]1C(=O)NC(Cc1ccccc1)P(=O)(Oc1ccccc1)Oc1ccccc1 (stereo partly drawn) [Suc-Val-Pro-Phe^P(OPh)2-I]
preventative effect, reducing adhesion formation (Syrian hamsters): not

uterus chymase activity (chymase [1]): 0.66±0.06 mU/mg protein | chymase activity in vascular tissues (chymase [4]): significantly suppressed
Compound: CC(C)[C@H](NC(=O)CCC(=O)O)C(=O)N1CCC[C@H]1C(=O)NC(Cc1ccccc1)P(=O)(Oc1ccccc1)Oc1ccccc1 (stereo partly drawn) [Suc-Val-Pro-Phe^P(OPh)2]
scores of adhesion formation (Syrian hamsters; two weeks after surgery, 1 ml of 10 μM in saline into the abdomen, score 0-4, mean ± S.E., placebo 2.07±0.34, difference significant): 0.88±0.20 | highest score of adhesion formation found (Syrian hamsters; two weeks after surgery, score 0-4, placebo scores between 0 and 4): ≤ 3 | inhibitor potency for chymotrypsin and chymotrypsin-like enzymes [2]: relatively potent inhibitor | half-life in human plasma [3]: approximately 20 hr

Compound: CC(C)(C)OC(=O)N[C@H](Cc1ccccc1)C(=O)N1CCC[C@H]1C(=O)NC(c1ccc(C(=N)N)cc1)P(=O)(Oc1ccccc1)Oc1ccccc1.Cl (stereo partly drawn) [diphenyl Boc-D-Phe-Pro-amino(4-amidinophenyl)methanephosphonate hydrochloride]
inhibitor potency for bovine thrombin (bovine thrombin): potent phosphonate inhibitor

Compound: Boc-Val-Pro-Val^P(OPh)2
inhibitor potency for human leukocyte elastase (human leukocyte elastase): relatively potent inhibitors

Compound: MeO-Suc-Ala-Ala-Pro-Val^P(OPh)2
inhibitor potency for human leukocyte elastase (human leukocyte elastase): relatively potent inhibitors
